Each block holds one molecule with its values, some of them ahead of it.
Assays:
Assay type in all cases: cell-based
[1] = system: Staphylococcus aureus ATCC 6538; test: MIC, agar incorporation test; details: ATCC6538, 24 hours at 37° C.
Experimental: (§1) Determination of the Minimum Inhibitory Concentration (MIC) in the Agar Incorporation Test (MIC Test) [table] The plates are incubated at 37° C. for 24 hours (A. niger at 28° C. for 3 days) and then the highest dilution (lowest concentration) of the test substance at which growth is just no longer discernible (corresponds to the MIC) is determined.

[2] = system: Aspergillus niger ATCC 6275; test: MIC, agar incorporation test; details: ATCC6275, 72 h, 28° C. for 3 days
Experimental: as §1

[3] = system: C. minutissimum ATCC 23348; test: MIC, agar incorporation test; details: Corynebacterium minutissimum, ATCC23348, 24 hours at 37° C.
Experimental: as §1

[4] = system: Candida albicans ATCC 10231; test: MIC, agar incorporation test; details: ATCC10231, 24 hours at 37° C.
Experimental: as §1

[5] = system: Corynebacterium xerosis ATCC 373; test: MIC, agar incorporation test; details: ATCC373, 24 hours at 37° C.
Experimental: as §1

[6] = system: Escherichia coli ATCC 10536; test: MIC, agar incorporation test; details: ATCC10536, 24 hours at 37° C.
Experimental: as §1

[7] = system: Escherichia coli NCTC 8196; test: MIC, agar incorporation test; details: NCTC8196, 24 hours at 37° C.
Experimental: as §1

[8] = system: Klebsiella pneumoniae ATCC 4352; test: MIC, agar incorporation test; details: ATCC4352, 24 hours at 37° C.
Experimental: as §1

[9] = system: Propionibacterium acnes ATCC 6919; test: MIC, agar incorporation test; details: Cutibacterium acnes, ATCC6919, 24 hours at 37° C.
Experimental: as §1

[10] = system: Proteus vulgaris ATCC 6896; test: MIC, agar incorporation test; details: ATCC6896, 24 hours at 37° C.
Experimental: as §1

[11] = system: Pseudomonas aeruginosa ATCC 15442; test: MIC, agar incorporation test; details: ATCC15442, 24 hours at 37° C.
Experimental: as §1

[12] = system: Salmonella choleraesuis ATCC 9184; test: MIC, agar incorporation test; details: Salmonella enterica, 24 hours at 37° C.
Experimental: as §1

[13] = system: Staphylococcus epidermidis ATCC 12228; test: MIC, agar incorporation test; details: ATCC12228, 24 hours at 37° C.
Experimental: as §1

[14] = system: Actinomyces viscosus ATCC 43146; test: Substantivity on hydroxyapatite and growth-inhibiting action; details: discs pre-treated with artificial saliva, 30 minutes in ethanolic solution at 5 ppm; 24 hours at 37° C.; compared to untreated control
Experimental: Testing the Substantivity of 2-tert-butyl-4-n-octylamino-6-pyrid-2-yl-1,3,5-triazine (140) on Hydroxyapatite and Determination of the Growth-Inhibiting Action Hydroxyapatite discs (diameter 10 mm) are placed in artificial saliva (Deutsche Zahnärztliche Zeitschrift DZZ 5/2002) for 4 hours, rinsed 4 times in NaCl solution and then incubated for 30 minutes in an ethanolic solution of the test substance (140) at 5 ppm. The discs are then transferred to a Nunclon-surface titre plate (12 wells) and incubated at 37° C. for 24 hours in CASO nutrient medium inoculated with Actinomyces viscosus ATCC 43146 (about 10^5/ml).

[15] = system: biofilm of a defined mixed culture of various gram+ and gram− oral micro-organisms and a yeast (Candida albicans); test: Activity in the biofilm model (supragingival plaque on hydroxyapatite discs)
Excerpt: Testing the Activity of 2-tert-butyl-4-n-octylamino-6-pyrid-2-yl-1,3,5-triazine (140) in the Biofilm Model Principle: See Guggenheim et al. (2001), “Validation of an in vitro biofilm model of supragingival plaque”, J. Dent Res. 80 (1). Hydroxyapatite discs are pre-treated with human saliva and a biofilm of a defined mixed culture of various gram+ and gram− oral micro-organisms (Streptococci, Actinomyces sp., Veillonella & Fusobacterium sp. and others) and a yeast (Candida albicans) is allowed to grow on the hydroxyapatite. Over the course of the test, which lasts a total of 4 days, the discs are immersed several times in an application formulation of the substance (0.5% (140)). Finally, the biofilm is harvested and the living cell count is determined.

MIC [1]: 8 µg/mL
SMILES: CCCCCCCCCCCC(=O)Nc1nc(C)nc(-c2ccncc2)n1 [Compound of formula (123)]

MIC [1]: 30 µg/mL
SMILES: CCCCCCNc1nc(C)nc(-c2ccccn2)n1 [Compound of formula (131)]

MIC [1]: 60 µg/mL
SMILES: CCCCCCNc1nc(C)nc(-c2cccnc2)n1 [Compound of formula (135)]

MIC [2]: > 120 µg/mL | MIC [3]: 0.94 µg/mL | MIC [4]: > 120 µg/mL | MIC [5]: 0.94 µg/mL | MIC [6]: 60 µg/mL | MIC [7]: 60 µg/mL | MIC [8]: 120 µg/mL | MIC [9]: 0.94 µg/mL | MIC [10]: > 120 µg/mL | MIC [11]: > 120 µg/mL | MIC [1]: 0.94 µg/mL | MIC [13]: 120 µg/mL
SMILES: CCCCCCCCNc1nc(-c2ccccn2)nc(C(C)(C)C)n1 [Compound of formula (140), 2-tert-butyl-4-n-octylamino-6-pyrid-2-yl-1,3,5-triazine]
MIC [12]: 120 µg/mL | inhibition of the growth of Actinomyces viscosus following adsorption onto hydroxyapatite discs [14]: inhibition of the growth | action on microbial count of the biofilm (in words) ([15]; compared to placebo formulation and control containing 10% ethanol): clear reduction in the microbial count | living cell count of biofilm (Mean) ([15]; hydroxyapatite discs pre-treated with human saliva, 4 days, discs immersed several times in application formulation (0.5% (140))): 1.1 × 10^5 CPU/disc

Reference: patent US7208597B2, “Pyridyl-triazine derivatives as microbiocidal active substances” (Ciba Specialty Chemicals Corporation, priority 2002, dated 2007)
